Where no end group is shown, it is not given here. [ ]: non-standard residue; d: D form. Arg(Me2a) = CN(C)C(=N)NCCC[C@H](N)C(=O)O; pS = N[C@@H](COP(=O)(O)O)C(=O)O
Tests used:
Experiment in all cases: Histone peptide microarray
Format in all cases: binding, human
PHF13 = conditions: PHF13, GST-tagged; arrays performed twice, n of 4
From the text: (§1) To more comprehensively define the histone interactions of the 31 PHD readers identified from the domain microarray analyses, we probed each on an alternate microarray platform containing a library of 293 synthetic histone peptides with single or combinatorial PTMs (Additional file 2: Figure S4 and Additional file 3: Table S2).
(§2) The 31 GST-tagged PHD readers identified in the PHD finger domain array were expressed and purified as previously. Histone peptide arrays and peptide pulldown assays were conducted as recently described (specifically, the optimized protocol from Petell et al. for the former).
(§3) Supplementary file 13072_2020_328_MOESM3_ESM.xlsx: Additional file 3: Table S2. […] Excel Tab Peptide List is a compiled list of the entire 293 histone peptide library with amino acid sequence ranges. […] Each number corresponds to the peptide number designated in Peptide List. Excel Tab Average Signals is a compiled set of binding data: chromatin reader at 0.5 μM vs. entire 293 peptide library. Data is presented as the average and standard deviation of 4 replicates. The average signals are colored to indicate signal intensity with green being strong and white being weak/low. […] Key: red= stronger relative binding; blue = weaker relative binding. Excel Tab Array info summary is a table summarizing the domains, sequence coverage, array signal range, and noise for each of the GST-tagged readers assayed on the peptide microarrays.

KDM5B (3) = conditions: KDM5B (3), GST-tagged; arrays performed twice, n of 4
From the text: as §1, §2, §3

ING5 = conditions: ING5, GST-tagged; arrays performed twice, n of 4
From the text: as §1, §2, §3

CHD4 (PPCC) = conditions: CHD4 (PPCC), GST-tagged; arrays performed twice, n of 4
From the text: as §1, §2, §3

PHF23 = conditions: PHF23, GST-tagged; arrays performed twice, n of 4
From the text: as §1, §2, §3

KDM5B (1) = conditions: KDM5B (1), GST-tagged; arrays performed twice, n of 4
From the text: as §1, §2, §3

ING4 = conditions: ING4, GST-tagged; arrays performed twice, n of 4
From the text: as §1, §2, §3

BPTF (PB) = conditions: BPTF (PB), GST-tagged; arrays performed twice, n of 4
From the text: as §1, §2, §3

ING3 = conditions: ING3, GST-tagged; arrays performed twice, n of 4
From the text: as §1, §2, §3

PHF21A = conditions: PHF21A, GST-tagged; arrays performed twice, n of 4
From the text: as §1, §2, §3

RAG2 = conditions: RAG2, GST-tagged; arrays performed twice, n of 4
From the text: as §1, §2, §3

PHF2 = conditions: PHF2, GST-tagged; arrays performed twice, n of 4
From the text: as §1, §2, §3

KDM7A = conditions: KDM7A, GST-tagged; arrays performed twice, n of 4
From the text: as §1, §2, §3

KDM5A (1) = conditions: KDM5A (1), GST-tagged; arrays performed twice, n of 4
From the text: as §1, §2, §3

PHRF1 (RP) = conditions: PHRF1 (RP), GST-tagged; arrays performed twice, n of 4
From the text: as §1, §2, §3

CHD5 (PCC) = conditions: CHD5 (PCC), GST-tagged; arrays performed twice, n of 4
From the text: as §1, §2, §3

MLL5 = conditions: MLL5, GST-tagged; arrays performed twice, n of 4
From the text: as §1, §2, §3

ING2 = conditions: ING2, GST-tagged; arrays performed twice, n of 4
From the text: as §1, §2, §3

PHF8 = conditions: PHF8, GST-tagged; arrays performed twice, n of 4
From the text: as §1, §2, §3

BAZ2B = conditions: BAZ2B, GST-tagged; arrays performed twice, n of 4
From the text: as §1, §2, §3

KDM4C (TTP) = conditions: KDM4C (TTP), GST-tagged; arrays performed twice, n of 4
From the text: as §1, §2, §3

TAF3 = conditions: TAF3, GST-tagged; arrays performed twice, n of 4
From the text: as §1, §2, §3

KDM5A (3) = conditions: KDM5A (3), GST-tagged; arrays performed twice, n of 4
From the text: as §1, §2, §3

DPF2 (PPC2W2) = conditions: DPF2 (PPC2W2), GST-tagged; arrays performed twice, n of 4
From the text: as §1, §2, §3

ING1 = conditions: ING1, GST-tagged; arrays performed twice, n of 4
From the text: as §1, §2, §3

TRIM66 (PB) = conditions: TRIM66 (PB), GST-tagged; arrays performed twice, n of 4
From the text: as §1, §2, §3

DIDO1 = conditions: DIDO1, GST-tagged; arrays performed twice, n of 4
From the text: as §1, §2, §3

CHD5 (PPCC) = conditions: CHD5 (PPCC), GST-tagged; arrays performed twice, n of 4
From the text: as §1, §2, §3

SP140L = conditions: SP140L, GST-tagged; arrays performed twice, n of 4
From the text: as §1, §2, §3

MORC3 (CW) = conditions: MORC3 (CW), GST-tagged; arrays performed twice, n of 4
From the text: as §1, §2, §3

AIRE (PP) = conditions: AIRE (PP), GST-tagged; arrays performed twice, n of 4
From the text: as §1, §2, §3

Array Heatmap value (peptide array binding signal) (PHF13) | Array Heatmap value (peptide array binding signal) (KDM5B (3)) | Array Heatmap value (peptide array binding signal) (ING5) | Array Heatmap value (peptide array binding signal) (CHD4 (PPCC)) | Array Heatmap value (peptide array binding signal) (PHF23) | Array Heatmap value (peptide array binding signal) (KDM5B (1)) | Array Heatmap value (peptide array binding signal) (ING4) | Array Heatmap value (peptide array binding signal) (BPTF (PB)) | Array Heatmap value (peptide array binding signal) (ING3) | Array Heatmap value (peptide array binding signal) (PHF21A) | Array Heatmap value (peptide array binding signal) (RAG2) | Array Heatmap value (peptide array binding signal) (PHF2) | Array Heatmap value (peptide array binding signal) (KDM7A) | Array Heatmap value (peptide array binding signal) (KDM5A (1)) | Array Heatmap value (peptide array binding signal) (PHRF1 (RP)) | Array Heatmap value (peptide array binding signal) (CHD5 (PCC)) | Array Heatmap value (peptide array binding signal) (MLL5) | Array Heatmap value (peptide array binding signal) (ING2) | Array Heatmap value (peptide array binding signal) (PHF8) | Array Heatmap value (peptide array binding signal) (BAZ2B) | Substance | further results
0.6011 | 0.4618 | 0.3401 | 0.5411 | 0.5294 | 0.6265 | 0.4409 | 0.3416 | 0.4528 | 0.4417 | 0.2374 | 0.5234 | 0.3242 | 0.4472 | 0.4082 | 0.7634 | 0.5527 | 0.5954 | 0.3477 | 0.4585 | H2AR3me2a + K5ac: H2A 1-17 (SG[Arg(Me2a)]GK(Ac)QGGKARAKAKTR; UniProt P0C0S8 2-18, looked up, fragment) | Array Heatmap value (peptide array binding signal) (KDM4C (TTP)): 0.4418; Array Heatmap value (peptide array binding signal) (TAF3): 0.2475; Array Heatmap value (peptide array binding signal) (KDM5A (3)): 0.4055; Array Heatmap value (peptide array binding signal) (DPF2 (PPC2W2)): 0.6169; Array Heatmap value (peptide array binding signal) (ING1): 0.502; Array Heatmap value (peptide array binding signal) (TRIM66 (PB)): 0.6358; Array Heatmap value (peptide array binding signal) (DIDO1): 0.6572; Array Heatmap value (peptide array binding signal) (CHD5 (PPCC)): 0.5209; Array Heatmap value (peptide array binding signal) (SP140L): 0.3352; Array Heatmap value (peptide array binding signal) (MORC3 (CW)): 0.3531; Array Heatmap value (peptide array binding signal) (AIRE (PP)): 0.4061
0.6036 | 0.5168 | 0.3496 | 0.5891 | 0.5205 | 0.6538 | 0.4636 | 0.3406 | 0.4609 | 0.4797 | 0.2429 | 0.4023 | 0.4384 | 0.482 | 0.4027 | 0.7774 | 0.519 | 0.5905 | 0.3673 | 0.4549 | H2AS1p + K5ac + K9ac + K13ac + K15ac: H2A 1-17 ([pS]GRGK(Ac)QGGK(Ac)ARAK(Ac)AK(Ac)TR; UniProt P0C0S8 2-18, looked up, fragment) | Array Heatmap value (peptide array binding signal) (KDM4C (TTP)): 0.5241; Array Heatmap value (peptide array binding signal) (TAF3): 0.2828; Array Heatmap value (peptide array binding signal) (KDM5A (3)): 0.391; Array Heatmap value (peptide array binding signal) (DPF2 (PPC2W2)): 0.6038; Array Heatmap value (peptide array binding signal) (ING1): 0.5008; Array Heatmap value (peptide array binding signal) (TRIM66 (PB)): 0.5729; Array Heatmap value (peptide array binding signal) (DIDO1): 0.6263; Array Heatmap value (peptide array binding signal) (CHD5 (PPCC)): 0.5428; Array Heatmap value (peptide array binding signal) (SP140L): 0.3555; Array Heatmap value (peptide array binding signal) (MORC3 (CW)): 0.4032; Array Heatmap value (peptide array binding signal) (AIRE (PP)): 0.5117
0.4493 | 0.3803 | 0.2521 | 0.4644 | 0.4819 | 0.5673 | 0.3411 | 0.2697 | 0.3526 | 0.3599 | 0.2266 | 0.5004 | 0.2299 | 0.3412 | 0.3697 | 0.6294 | 0.4623 | 0.5878 | 0.2793 | 0.3559 | H2AS1p + K5ac: H2A 1-17 ([pS]GRGK(Ac)QGGKARAKAKTR; UniProt P0C0S8 2-18, looked up, fragment) | Array Heatmap value (peptide array binding signal) (KDM4C (TTP)): 0.3213; Array Heatmap value (peptide array binding signal) (TAF3): 0.2127; Array Heatmap value (peptide array binding signal) (KDM5A (3)): 0.4071; Array Heatmap value (peptide array binding signal) (DPF2 (PPC2W2)): 0.5432; Array Heatmap value (peptide array binding signal) (ING1): 0.485; Array Heatmap value (peptide array binding signal) (TRIM66 (PB)): 0.4856; Array Heatmap value (peptide array binding signal) (DIDO1): 0.6049; Array Heatmap value (peptide array binding signal) (CHD5 (PPCC)): 0.3972; Array Heatmap value (peptide array binding signal) (SP140L): 0.2923; Array Heatmap value (peptide array binding signal) (MORC3 (CW)): 0.3086; Array Heatmap value (peptide array binding signal) (AIRE (PP)): 0.2932
